Results reported in US7445892B2, “Method of testing anticancer agent-sensitivity of tumor cells” (Eisai Co., Ltd., priority 2000, dated 2008).

Key:
[1] = tested on: LX-1-E2; assay: Gene expression analysis by quantitative PCR; format: cell-based, human; conditions: resistant strain LX-1-E2, 8 μM, 0-12 hours, FIG. 5
Description: (§1) Similarly, E7070 was added to the media of an E7070-susceptible strain LX-1 and an E7070-resistant strain LX-1-E2 at a concentration of 8 μM and the cells were cultured. Cells were recovered after 0, 3, 6 and 12 hours. Total RNA was extracted from these cells and subjected to the subsequent analyses. LX-1 (Cancer Chemotherapy Center, Japan Foundation for Cancer Research, Tokyo, Japan) was a cell strain derived from human parvicellular lung cancer, and LX-1-E2 is an E7070-resistant substrain obtained by culturing this LX-1 in the presence of E7070 with gradually increasing the E7070 concentration. In order to confirm that variations in gene expression obtained in Example 2 reflected the susceptibility of a tumor cell to E7070, changes of gene expression in E7070-susceptible cells and E7070-resistant cells were examined by quantitative PCR using RNA shown in Example 1, SYBR Green and ABI Prism 7700 Sequence Detection System (Perkin-Elmer Applied Biosystems). […] The mRNA level in each specimen was quantified by measuring fluorescence intensity. In comparison of two or more specimens, quantitative values were corrected based on the mRNA level of GAPDH in each specimen. The relationships between the drug treatment time and each mRNA level are shown in FIGS. 2 to 5, where the quantified value at 0 hour after the drug treatment was used as a control (100%).

[2] = tested on: LX-1; assay: Gene expression analysis by quantitative PCR; format: cell-based, human; conditions: susceptible strain LX-1, 8 μM, 0-12 hours, FIG. 3
Description: as §1

NS(=O)(=O)c1ccc(S(=O)(=O)Nc2cccc3c(Cl)c[nH]c23)cc1 [E7070, N-(3-chloro-7-indolyl)-1,4-benzenedisulfonamide]
mRNA level variation of S80343, U07919, U11791, M95809, U18291, U63743, M61764 (corrected by GAPDH) [1]: U11791 showed an expression change and M95809 and U18291 showed a slight expression change
mRNA level variation of S80343, U07919, U11791, M95809, U18291, U63743, M61764 (corrected by GAPDH) [2]: all the genes except for S80343 showed expression variations
